These results are taken from patent US8685977B2, “Chemical compounds” (Pfizer Limited, priority 2010, dated 2014).

The structures appear in SMILES notation.

T1 sequence (Q15858 whole entry): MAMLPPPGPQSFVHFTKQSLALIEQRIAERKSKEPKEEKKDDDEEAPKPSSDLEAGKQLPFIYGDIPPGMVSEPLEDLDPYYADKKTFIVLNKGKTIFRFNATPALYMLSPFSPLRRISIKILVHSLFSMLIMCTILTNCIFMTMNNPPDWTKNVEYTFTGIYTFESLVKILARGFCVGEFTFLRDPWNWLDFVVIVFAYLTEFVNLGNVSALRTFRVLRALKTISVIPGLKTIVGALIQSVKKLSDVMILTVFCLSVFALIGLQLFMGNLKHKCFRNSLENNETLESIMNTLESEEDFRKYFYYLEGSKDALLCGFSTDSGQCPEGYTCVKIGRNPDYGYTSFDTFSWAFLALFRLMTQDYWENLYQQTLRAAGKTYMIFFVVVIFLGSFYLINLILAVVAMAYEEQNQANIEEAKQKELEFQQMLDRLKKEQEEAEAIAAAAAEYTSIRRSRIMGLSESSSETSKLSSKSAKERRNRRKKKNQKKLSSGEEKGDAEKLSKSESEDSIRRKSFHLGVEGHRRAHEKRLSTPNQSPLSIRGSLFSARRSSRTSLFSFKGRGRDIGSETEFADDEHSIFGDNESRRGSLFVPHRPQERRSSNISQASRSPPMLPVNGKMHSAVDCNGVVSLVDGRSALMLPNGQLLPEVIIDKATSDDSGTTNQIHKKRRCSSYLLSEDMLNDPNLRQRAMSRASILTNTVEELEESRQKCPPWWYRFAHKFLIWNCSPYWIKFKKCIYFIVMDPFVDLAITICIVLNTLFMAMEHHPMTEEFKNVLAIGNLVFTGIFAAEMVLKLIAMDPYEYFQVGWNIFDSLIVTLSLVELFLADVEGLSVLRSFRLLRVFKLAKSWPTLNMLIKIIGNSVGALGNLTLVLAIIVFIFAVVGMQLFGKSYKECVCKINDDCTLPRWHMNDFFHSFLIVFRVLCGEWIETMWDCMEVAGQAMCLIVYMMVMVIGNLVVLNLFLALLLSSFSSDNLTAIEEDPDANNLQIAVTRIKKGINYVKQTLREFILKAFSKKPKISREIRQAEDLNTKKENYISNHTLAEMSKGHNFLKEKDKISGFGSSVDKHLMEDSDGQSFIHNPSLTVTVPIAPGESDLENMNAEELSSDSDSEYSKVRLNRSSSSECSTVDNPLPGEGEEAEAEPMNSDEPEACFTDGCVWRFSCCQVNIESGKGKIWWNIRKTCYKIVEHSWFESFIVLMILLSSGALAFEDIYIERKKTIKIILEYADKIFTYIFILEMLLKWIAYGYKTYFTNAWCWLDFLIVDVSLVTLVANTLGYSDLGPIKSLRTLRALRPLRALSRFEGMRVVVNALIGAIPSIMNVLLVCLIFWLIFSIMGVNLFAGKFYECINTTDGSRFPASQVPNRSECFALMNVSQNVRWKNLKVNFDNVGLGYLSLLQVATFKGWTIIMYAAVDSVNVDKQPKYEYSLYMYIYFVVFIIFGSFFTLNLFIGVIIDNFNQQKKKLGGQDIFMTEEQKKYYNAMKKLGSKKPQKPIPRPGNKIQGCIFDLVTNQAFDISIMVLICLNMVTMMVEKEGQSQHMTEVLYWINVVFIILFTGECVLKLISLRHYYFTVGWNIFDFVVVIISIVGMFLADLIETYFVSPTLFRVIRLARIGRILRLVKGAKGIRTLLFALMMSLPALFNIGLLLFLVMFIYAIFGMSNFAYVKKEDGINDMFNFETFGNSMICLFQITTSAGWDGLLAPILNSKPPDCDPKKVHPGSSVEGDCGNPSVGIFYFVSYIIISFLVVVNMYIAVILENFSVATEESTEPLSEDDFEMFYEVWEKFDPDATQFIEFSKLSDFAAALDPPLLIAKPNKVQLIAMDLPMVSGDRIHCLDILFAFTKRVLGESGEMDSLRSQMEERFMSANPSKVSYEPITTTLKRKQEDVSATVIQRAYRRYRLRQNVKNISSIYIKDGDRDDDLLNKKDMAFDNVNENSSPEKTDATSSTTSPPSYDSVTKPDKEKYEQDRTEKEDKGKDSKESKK

The assay addresses T1, Nav1.7 (or SCN9A) channel (Homo sapiens, UniProt Q15858).
T1 construct: expressed in transfected cells
Nature of the assay: Nav1.7 PatchXpress 7000 automated electrophysiology assay (HEK cells stably expressing hSCN9A). As to conditions: voltage-clamped at V1/2 of inactivation, read-out: Nav1.7 EIC50. It counts as cell-based. The gist of the method:
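Automated whole-cell clamp (PatchXpress) of HEK cells stably expressing hSCN9A, at 22-24 °C, in extracellular buffer at pH 7.4. Cells were held at the measured V1/2 of inactivation, then stepped to 0 mV for 20 ms. Single-concentration % inhibition gave EIC50 = concentration × (100 − %inhibition)/%inhibition, excluding <20% or >80%.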
`Cc1cc(F)ccc1Oc1ccc(C(=O)NS(C)(=O)=O)cc1` [Example 201, 4-(4-fluoro-2-methylphenoxy)-N-(methylsulfonyl)benzamide]: the IC50 came to 20 µM.
Next, `CS(=O)(=O)NC(=O)c1ccc(Oc2cccc(Cl)c2)cc1` [Example 202, 4-(3-chlorophenoxy)-N-(methylsulfonyl)benzamide]: 6.9 µM; `Cc1ccc(Oc2ccc(C(=O)NS(C)(=O)=O)cc2)c(Cl)c1` [Example 203, 4-(2-chloro-4-methylphenoxy)-N-(methylsulfonyl)benzamide]: 25 µM.
Next, `COc1cc(C)cc(Oc2ccc(C(=O)NS(C)(=O)=O)cc2)c1` [Example 204, 4-(3-methoxy-5-methylphenoxy)-N-(methylsulfonyl)benzamide]: 21 µM; `Cc1ccc(F)c(Oc2ccc(C(=O)NS(C)(=O)=O)cc2)c1` [Example 205, 4-(2-fluoro-5-methylphenoxy)-N-(methylsulfonyl)benzamide]: 15 µM.
Next, `Cc1cc(Cl)ccc1Oc1ccc(C(=O)NS(C)(=O)=O)cc1` [Example 206, 4-(4-chloro-2-methylphenoxy)-N-(methylsulfonyl)benzamide]: 18 µM.
In the case of `COc1cc(Oc2cccc(Cl)c2)ccc1C(=O)NS(C)(=O)=O` [Example 213, 4-(3-chlorophenoxy)-2-methoxy-N-(methylsulfonyl)benzamide], the IC50 was above 3 µM.
Next, `CS(=O)(=O)NC(=O)c1ccc(Oc2ccc(Cl)cc2)c(Cl)c1` [Example 214, 3-chloro-4-(4-chlorophenoxy)-N-(methylsulfonyl)benzamide]: 0.22 µM; `Cc1ccc(Oc2ccc(C(=O)NS(C)(=O)=O)cc2Cl)cc1` [Example 215, 3-chloro-4-(4-methylphenoxy)-N-(methylsulfonyl)benzamide]: 1.3 µM.
Take `COc1cc(Oc2ccc(F)c(C)c2)ccc1C(=O)NS(C)(=O)=O` [Example 216, 4-(4-fluoro-3-methylphenoxy)-2-methoxy-N-(methylsulfonyl)benzamide]: the IC50 was 11 µM.
Next, `Cc1ccc(Oc2ccc(C(=O)NS(C)(=O)=O)cc2F)cc1` [Example 217, 3-fluoro-4-(4-methylphenoxy)-N-(methylsulfonyl)benzamide]: 4.2 µM; `Cc1cc(Oc2ccc(C(=O)NS(C)(=O)=O)cc2F)ccc1F` [Example 218, 3-fluoro-4-(4-fluoro-3-methylphenoxy)-N-(methylsulfonyl)benzamide]: 2.8 µM.
To `CS(=O)(=O)NC(=O)c1ccc(Oc2ccc(Cl)c(F)c2)cc1` [Example 220, 4-(4-chloro-3-fluorophenoxy)-N-(methylsulfonyl)benzamide] belongs 1.8 µM.
Consider `CS(=O)(=O)NC(=O)c1ccc(Oc2cccc(Cl)c2)c(F)c1` [Example 223, 4-(3-chlorophenoxy)-3-fluoro-N-(methylsulfonyl)benzamide], for which the IC50 is 2.4 µM.
On to `COc1c(C(=O)NS(C)(=O)=O)ccc(Oc2cccc(Cl)c2)c1F` [Example 225, 4-(3-chlorophenoxy)-3-fluoro-2-methoxy-N-(methylsulfonyl)benzamide], for which the IC50 was 3.3 µM.
Take `COc1cc(Oc2ccc(Cl)c(F)c2)ccc1C(=O)NS(C)(=O)=O` [Example 228, 4-(4-chloro-3-fluorophenoxy)-2-methoxy-N-(methylsulfonyl)benzamide]: the IC50 worked out at 5.4 µM.
To `CS(=O)(=O)NC(=O)c1ccc(Oc2ccc(Cl)cc2)c(F)c1` [Example 229, 4-(4-chlorophenoxy)-3-fluoro-N-(methylsulfonyl)benzamide] belongs 1.2 µM; to `COc1c(C(=O)NS(C)(=O)=O)ccc(Oc2ccc(Cl)c(C)c2)c1F` [Example 230, 4-(4-chloro-3-methylphenoxy)-3-fluoro-2-methoxy-N-(methylsulfonyl)benzamide], 0.86 µM; to `COc1cc(Oc2ccc(Cl)c(C)c2)ccc1C(=O)NS(C)(=O)=O` [Example 231, 4-(4-chloro-3-methylphenoxy)-2-methoxy-N-(methylsulfonyl)benzamide], 3.9 µM.
Next, `COc1cc(Oc2ccc(F)c(Cl)c2)ccc1C(=O)NS(C)(=O)=O` [Example 233, 4-(3-chloro-4-fluorophenoxy)-2-methoxy-N-(methylsulfonyl)benzamide]: 8.2 µM; `COc1c(C(=O)NS(C)(=O)=O)ccc(Oc2ccc(Cl)c(Cl)c2)c1F` [Example 234, 4-(3,4-dichlorophenoxy)-3-fluoro-2-methoxy-N-(methylsulfonyl)benzamide]: 0.85 µM; `Cc1cc(C(=O)NS(C)(=O)=O)ccc1Oc1ccc(F)cc1` [Example 237, 4-(4-fluorophenoxy)-3-methyl-N-(methylsulfonyl)benzamide]: 2.5 µM.
Next, `Cc1cc(C(=O)NS(C)(=O)=O)ccc1Oc1cccc(Cl)c1` [Example 238, 4-(3-chlorophenoxy)-3-methyl-N-(methylsulfonyl)benzamide]: 0.96 µM; `Cc1cc(C(=O)NS(C)(=O)=O)ccc1Oc1ccc(Cl)cc1` [Example 240, 4-(4-chlorophenoxy)-3-methyl-N-(methylsulfonyl)benzamide]: 0.63 µM; `CS(=O)(=O)NC(=O)c1ccc(Oc2ccc(-c3ccccc3)cc2)cc1` [Example 245, 4-(biphenyl-4-yloxy)-N-(methylsulfonyl)benzamide]: 1.3 µM.
As for `CS(=O)(=O)NC(=O)c1ccc(Oc2ccc3ccccc3c2)c(Cl)c1` [Example 246, 3-chloro-N-(methylsulfonyl)-4-(2-naphthyloxy)benzamide], the IC50 is 0.49 µM.
Next, `CS(=O)(=O)NC(=O)c1ccc(Oc2ccccc2Cl)c(Cl)c1` [Example 248, 3-chloro-4-(2-chlorophenoxy)-N-(methylsulfonyl)benzamide]: 1.7 µM.
To `Cc1cccc(Oc2ccc(C(=O)NS(C)(=O)=O)cc2Cl)c1` [Example 250, 3-chloro-4-(3-methylphenoxy)-N-(methylsulfonyl)benzamide] belongs 1.4 µM.
To `CS(=O)(=O)NC(=O)c1ccc(Oc2ccccc2)c(Cl)c1` [Example 252, 3-chloro-N-(methylsulfonyl)-4-phenoxybenzamide] belongs 1.2 µM; to `CCOc1ccc(Oc2ccc(C(=O)NS(C)(=O)=O)cc2)cc1` [Example 253, 4-(4-ethoxyphenoxy)-N-(methylsulfonyl)benzamide], 2.5 µM; to `Cc1cccc(Oc2ccc(C(=O)NS(C)(=O)=O)cc2)c1` [Example 254, 4-(3-methylphenoxy)-N-(methylsulfonyl)benzamide], 7.5 µM.
Take `COc1cccc(Oc2ccc(C(=O)NS(C)(=O)=O)cc2Cl)c1` [Example 255, 3-chloro-4-(3-methoxyphenoxy)-N-(methylsulfonyl)benzamide]: the IC50 came out at 1.4 µM.
To `Cc1ccccc1Oc1ccc(C(=O)NS(C)(=O)=O)cc1Cl` [Example 256, 3-chloro-4-(2-methylphenoxy)-N-(methylsulfonyl)benzamide] belongs 2.8 µM.
Next, `COc1ccc(Oc2ccc(C(=O)NS(C)(=O)=O)cc2Cl)cc1` [Example 257, 3-chloro-4-(4-methoxyphenoxy)-N-(methylsulfonyl)benzamide]: 1.1 µM; `CS(=O)(=O)NC(=O)c1ccc(Oc2cccc3ccccc23)c(Cl)c1` [Example 258, 3-chloro-N-(methylsulfonyl)-4-(1-naphthyloxy)benzamide]: 2.1 µM.
Next, `CS(=O)(=O)NC(=O)c1ccc(Oc2cccc(F)c2)c(Cl)c1` [Example 262, 3-chloro-4-(3-fluorophenoxy)-N-(methylsulfonyl)benzamide]: 1.1 µM; `CS(=O)(=O)NC(=O)c1ccc(Oc2cccc(C#N)c2)c(Cl)c1` [Example 264, 3-chloro-4-(3-cyanophenoxy)-N-(methylsulfonyl)benzamide]: 7 µM.
As to `CCOc1ccc(Oc2ccc(C(=O)NS(C)(=O)=O)cc2C#N)cc1` [Example 265, 3-cyano-4-(4-ethoxyphenoxy)-N-(methylsulfonyl)benzamide], the IC50 was 4.8 µM.
To `CS(=O)(=O)NC(=O)c1ccc(Oc2cccc(C(F)(F)F)c2)c(Cl)c1` [Example 266, 3-chloro-N-(methylsulfonyl)-4-[3-(trifluoromethyl)phenoxy]benzamide] belongs 0.27 µM.
With `CS(=O)(=O)NC(=O)c1ccc(Oc2ccccc2-c2ccccc2)cc1` [Example 268, 4-(biphenyl-2-yloxy)-N-(methylsulfonyl)benzamide], the IC50 came to 5.3 µM.
`CS(=O)(=O)NC(=O)c1ccc(Oc2ccc3ccccc3c2)c(C#N)c1` [Example 269, 3-cyano-N-(methylsulfonyl)-4-(2-naphthyloxy)benzamide]: the IC50 was found to be 1.7 µM.
`CS(=O)(=O)NC(=O)c1ccc(Oc2ccc(C#N)cc2)c(Cl)c1` [Example 270, 3-chloro-4-(4-cyanophenoxy)-N-(methylsulfonyl)benzamide]: the IC50 amounted to 3.7 µM.
As for `CS(=O)(=O)NC(=O)c1ccc(Oc2cccc(-c3ccccc3)c2)c(C#N)c1` [Example 272, 4-(biphenyl-3-yloxy)-3-cyano-N-(methylsulfonyl)benzamide], the IC50 came to 0.71 µM.
Take `COc1cccc(Oc2ccc(C(=O)NS(C)(=O)=O)cc2C#N)c1` [Example 277, 3-cyano-4-(3-methoxyphenoxy)-N-(methylsulfonyl)benzamide]: the IC50 was 5.6 µM.
For the compound `CS(=O)(=O)NC(=O)c1ccc(Oc2ccccc2C(F)(F)F)c(Cl)c1` [Example 278, 3-chloro-N-(methylsulfonyl)-4-[2-(trifluoromethyl)phenoxy]benzamide], the IC50 stood at 6.6 µM.
To `CS(=O)(=O)NC(=O)c1ccc(Oc2ccc(-c3ccccc3)cc2)c(C#N)c1` [Example 280, 4-(biphenyl-4-yloxy)-3-cyano-N-(methylsulfonyl)benzamide] belongs 0.43 µM; to `CCOc1cccc(Oc2ccc(C(=O)NS(C)(=O)=O)cc2C#N)c1` [Example 281, 3-cyano-4-(3-ethoxyphenoxy)-N-(methylsulfonyl)benzamide], 4.3 µM.
